Measured values reported in publication PMC9859815 (Scientific Reports, 2023).
Where two headings read alike, the source gives them in different places.

Assays:
[1] = cited from earlier work
[2] = Single-dose, 2-sequence, 2-period crossover pharmacokinetic/bioequivalence study, fasting oral administration, healthy Chinese subjects (also by CYP2C19 phenotype and gender); format: in vivo; conditions: human, plasma, mean ± SD
Protocol: Forty subjects were randomly divided into two groups, with 20 patients in each group. […] The subjects in each group fasted after 21:00 the night before administration. […] The blood samples were centrifuged at 1700 g (4 °C) for 10 min within 1 h of collection. The centrifuged plasma was immediately aliquoted into 2 tubes with corresponding labels (1 for testing, 1 for backup, the volume of plasma in each tube should not be less than 500 µL) and stored at […] until analysis. The total time from whole blood collection to centrifugation to separate plasma and then stored in […] refrigerator should not exceed 2 h.
The sample pretreatment method was the protein precipitation method.
Terminal elimination rate constant λz and the apparent terminal elimination half-life (T1/2) were also needed. AUC0–∞ (the AUC from time 0 to infinity) used the formula: AUC0–∞ = AUC0–t + Ct/λ(T1/2 = 0.693/λz) to calculate.
SAS 9.4 software was used for statistical analysis.

[3] = Pakistani, cited from earlier work

AUC(0-t) ([2]; CYP2C19 EM (N = 12)): 553 ± 391 ng·h/mL
half-life ([2]; CYP2C19 PM (N = 4)): 2.48 ± 0.24 h
SMILES: COc1ccc2[nH]c([S+]([O-])Cc3ncc(C)c(OC)c3C)nc2c1 (centres unmarked) [omeprazole]
Cmax ([1]; CYP2C19 EM, Caucasians): 285 ± 82.9 ng/mL
T1/2 ([1]; CYP2C19 EM, Caucasians): 0.71 ± 0.1 h
AUC0–t ([1]; CYP2C19 EM, Japanese): 618.3 ± 141.9 ng·h/mL
Cmax ([1]; CYP2C19 EM, Japanese): 251.1 ± 46.2 ng/mL
AUC0–t ([1]; CYP2C19 EM, Korean): 713.49 ± 555.56 ng·h/mL
AUC0–t ([1]; CYP2C19 EM, West Asian): 250.5 ± 16.1 ng·h/mL
Cmax ([1]; CYP2C19 EM, West Asians): 152.4 ± 9.94 ng/mL
T1/2 ([1]; CYP2C19 EM, West Asians): 0.9 ± 0.01 h
AUC0–t ([1]; CYP2C19 EM, Whites): 635.5 ± 259.7 ng·h/mL
T1/2 ([1]; CYP2C19 PM, Caucasians): 2.68 ± 0.3 h
Cmax ([1]; CYP2C19 PM, East Asians (so in the source)): 538.6 ± 33.5 ng/mL
Cmax ([1]; CYP2C19 PM, Japanese): 1070.2 ± 185.3 ng/mL
T1/2 ([1]; CYP2C19 PM, Japanese): 2.41 ± 0.15 h
T1/2 ([1]; CYP2C19 PM, West Asians): 2.42 ± 0.18 h
AUC0–t ([3]; females): 8740 ± 2230 ng·h/mL
Cmax ([3]; females): 2913 ± 610 ng/mL
AUC0–t ([3]; males): 6670 ± 4320 ng·h/mL
Cmax ([3]; males): 2006 ± 980 ng/mL
